Results on 33 molecules are retold here after ChEMBL document CHEMBL2396591, “Identification of potent and orally bioavailable nucleotide competing reverse transcriptase inhibitors: in vitro and in vivo optimization of a series of benzofurano[3,2-d]pyrimidin-2-one derived inhibitors” (Bioorg Med Chem Lett, 2013).

Data set [1] can be described thus: Oral bioavailability in rat at 5 mg/kg. The data set is classed as ADME, organism-based. The note with it: in vivo.
The nature of data set [2]: Cmax in rat at 5 mg/kg, po. The arrangement: dose 5 mg/kg, route oral. The note with it: in vivo. The class given is ADME, organism-based.
The test system of a further data set is Rattus norvegicus. Briefly: Clearance in rat at 2 mg/kg, iv. The note with it: in vivo. The arrangement: dose 2 mg/kg, route intravenous. The data set is classed as ADME, organism-based.
A short description of data set [3]: Octanol-phosphate buffer partition coefficient, log D of the compound at pH 7.4. The data set is classed as physicochemical.
A short description of data set [4]: Aqueous solubility of the compound in phosphate buffer at pH 2 after 24 hrs. The data set is classed as physicochemical.
A short description of data set [5]: Aqueous solubility of the compound in phosphate buffer at pH 6.8 after 24 hrs. The class given is physicochemical.

The structures appear in SMILES notation. ≈ marks a conversion by molar mass, not a printed value.

The bioavailability is the share of a dose that reaches the circulation, judged against a reference dose that is usually intravenous. Read a low bioavailability as little systemic uptake. What is called Cmax is the peak of the concentration-time curve. Turning to `CNc1ccc(-c2nc(=O)n(CC[C@@H]3CCCO3)c3c2oc2ncc(-c4cnn(C)c4)cc23)cn1`, in data set [1], the bioavailability is 36%. Besides, the concentration in data set [2] peaked (Cmax) at 140 nM. For the same molecule, the CL with Rattus norvegicus was 37%.
A word on the logD: it is the decadic logarithm of the distribution of all forms, ionised or not, between an organic phase and buffer at a given pH. Low values mean lower lipophilicity, high ones higher lipophilicity. In turn, `CNc1ccc(-c2nc(=O)n(CCC3CC(C)(C)CO3)c3c2oc2ncc(-c4cnn(C)c4)cc23)cn1` (stereo not drawn) gave a logD in data set [3] of 3.4.
The same measure, in the same setting: the value for `Cn1cc(-c2cnc3oc4c(-c5cscn5)nc(=O)n(CCC5CCCO5)c4c3c2)cn1` (stereo not drawn) was 1.5; that for `Cn1cc(-c2cnc3oc4c(-c5ccn(C)n5)nc(=O)n(CCC5CCCO5)c4c3c2)cn1` (stereo not drawn) was 0.9; that for `Cn1cc(-c2cnc3oc4c(-c5cn(C)nn5)nc(=O)n(CCC5CCCO5)c4c3c2)cn1` (stereo not drawn) was 1.5.
Same read-out and setting: the same measure for `Cn1cc(-c2cnc3oc4c(-c5cnn(C)c5)nc(=O)n(CCC5CCCO5)c4c3c2)cn1` (stereo not drawn): 1.5; for `CCn1cc(-c2nc(=O)n(CCC3CCCO3)c3c2oc2ncc(-c4cnn(C)c4)cc23)cn1` (stereo not drawn): 2.2; for `COc1cncc(-c2nc(=O)n(CCC3CCCO3)c3c2oc2ncc(-c4cnn(C)c4)cc23)c1` (stereo not drawn): 2.5.
Same read-out and setting: the value for `COc1ccc(-c2nc(=O)n(CCC3CCCO3)c3c2oc2ncc(-c4cnn(C)c4)cc23)cc1` (stereo not drawn) was 3.5; that for `COc1ccc(-c2nc(=O)n(CCC3CCCO3)c3c2oc2ncc(-c4cnn(C)c4)cc23)cn1` (stereo not drawn) was 2.8.
In the case of `CN(C)c1cnc(-c2nc(=O)n(CCC3CCCO3)c3c2oc2ncc(-c4cnn(C)c4)cc23)cn1` (stereo not drawn), in data set [3], the logD is 2.
The same measure, in the same setting: the value for `CNc1ccc(-c2nc(=O)n(CCC3CCCO3)c3c2oc2ncc(-c4cnn(C)c4)cc23)nc1` (stereo not drawn) was 1.9; that for `Cn1cc(-c2cnc3oc4c(-c5cccnc5)nc(=O)n(CCC5CCCO5)c4c3c2)cn1` (stereo not drawn) was 1.7.
For `Cn1cc(-c2cnc3oc4c(-c5ccncc5)nc(=O)n(CCC5CCCO5)c4c3c2)cn1` (stereo not drawn), in data set [3], the logD is 1.8.
On the same count and under the same terms, the value for `COc1cc(-c2nc(=O)n(CCC3CCCO3)c3c2oc2ncc(-c4cnn(C)c4)cc23)ccn1` (stereo not drawn) was 2.8; that for `CNc1ccc(-c2nc(=O)n(CCC3CCCCO3)c3c2oc2ncc(-c4cnn(C)c4)cc23)cn1` (stereo not drawn) was 3.2; that for `CNc1ccc(-c2nc(=O)n(CCC3CCOCC3)c3c2oc2ncc(-c4cnn(C)c4)cc23)cn1` was 2.5.
Same read-out and setting: the same measure for `CNc1ccc(-c2nc(=O)n(C(C)CC3CCCO3)c3c2oc2ncc(-c4cnn(C)c4)cc23)cn1` (stereo not drawn): 3.3; for `CNc1ccc(-c2nc(=O)n(CCC3CCC(C)O3)c3c2oc2ncc(-c4cnn(C)c4)cc23)cn1` (stereo not drawn): 3.2; for `CCC1(OC)CC(n2c(=O)nc(-c3ccc(NC)nc3)c3oc4ncc(-c5cnn(C)c5)cc4c32)C1` (stereo not drawn): 2.9.
The same measure, in the same setting: the value for `CC[C@H]1C[C@H](n2c(=O)nc(-c3ccc(NC)nc3)c3oc4ncc(-c5cnn(C)c5)cc4c32)CCO1` (racemic) was 2.6.
For the molecule `CC[C@H]1C[C@@H](n2c(=O)nc(-c3ccc(NC)nc3)c3oc4ncc(-c5cnn(C)c5)cc4c32)CCO1` (racemic), the bioavailability in data set [1] came to 34%. In data set [2], this molecule showed a Cmax of 1100 nM. In addition, the CL in the data set with Rattus norvegicus is 19%. For the same molecule, the logD in data set [3] is 2.9.
As for `CNc1ccc(-c2nc(=O)n(CCC3CCCO3)c3c2oc2ncc(-c4cnn(C)c4)cc23)cn1` (racemic), the logD in data set [3] worked out at 2.7.
As a reminder, the solubility is the concentration that dissolves in the medium under given conditions. In the case of `CC[C@H]1C[C@@H](n2c(=O)nc(-c3cnn(C)c3)c3oc4ncc(-c5cn(C)cn5)cc4c32)CCO1` (relative stereo), the solubility at 24 h in data set [4] was above 1000 µg/mL; in data set [5], 2.8 µg/mL (≈ 6.09 µM). This molecule came in with a logD in data set [3] of 1.8.
For `CC[C@H]1C[C@@H](n2c(=O)nc(-c3cnn(C)c3)c3oc4cnc(-c5cn(C)cn5)cc4c32)CCO1` (relative stereo), in that order: 420 µg/mL (≈ 914 µM), 5.3 µg/mL (≈ 11.5 µM) and 2.6.
In data set [1], `CC[C@H]1C[C@@H](n2c(=O)nc(-c3cnn(C)c3)c3oc4ccc(-c5cn(C)cn5)nc4c32)CCO1` (relative stereo) gave a bioavailability of 69%. Also, in data set [2], the peak level (Cmax) was 3100 nM. Moreover, in the data set with Rattus norvegicus, the CL came to 9.4%. For the same molecule, the solubility at 24 h in data set [4] was above 480 µg/mL; in data set [5], 0.6 µg/mL (≈ 1.31 µM). The same molecule showed a logD in data set [3] of 2.7.
`CC[C@H]1C[C@@H](n2c(=O)nc(-c3cnn(C)c3)c3oc4cnc(-c5cnn(C)c5)cc4c32)CCO1` (relative stereo): in data set [1], the bioavailability came out at 88%. For the same molecule, the peak level in data set [2] (Cmax) was 1600 nM. The same molecule registered a CL in the data set on Rattus norvegicus of 18%. The solubility at 24 h in data set [4] and in data set [5] was below 0.1 µg/mL in each case. For the same molecule, in data set [3], the logD was determined as 2.2.
`CC[C@H]1C[C@@H](n2c(=O)nc(-c3cnn(C)c3)c3oc4ccc(-c5cnn(C)c5)nc4c32)CCO1` (relative stereo): the bioavailability in data set [1] amounted to 35%. In addition, the peak level in data set [2] (Cmax) was 460 nM. The molecule also returned a CL in the data set with Rattus norvegicus of 18%. Moreover, the solubility at 24 h in data set [4] and in data set [5] was 0.2 µg/mL (≈ 0.435 µM) in each case. The logD in data set [3] came out at 3.
As for `CC[C@H]1C[C@@H](n2c(=O)nc(-c3cnn(C)c3)c3oc4cc(C#N)c(-c5cnn(C)c5)cc4c32)CCO1` (relative stereo), the solubility at 24 h in data set [4] and in data set [5] was 0.2 µg/mL (≈ 0.414 µM) throughout. The logD in data set [3] came out at 2.5.
For `CC[C@H]1C[C@@H](n2c(=O)nc(-c3cnn(C)c3)c3oc4cc(C#N)c(-c5cnn(C)c5)nc4c32)CCO1` (relative stereo), the bioavailability in data set [1] turned out to be 94%. Moreover, the concentration in data set [2] peaked (Cmax) at 8900 nM. The molecule further yielded a CL in the data set on Rattus norvegicus of 4.6%. Moreover, the results for the solubility at 24 h in data set [4] and in data set [5] were 7.9 µg/mL (≈ 16.3 µM) and 2.1 µg/mL (≈ 4.33 µM), respectively. Moreover, the logD in data set [3] was 2.7.
`CC[C@H]1C[C@@H](n2c(=O)nc(-c3cnn(C)c3)c3oc4ccc(-c5cnn(C)c5)cc4c32)CCO1` (relative stereo): the solubility at 24 h in data set [4] and in data set [5] was below 0.1 µg/mL throughout. In addition, the logD in data set [3] came to 3.
`CC[C@H]1C[C@@H](n2c(=O)nc(-c3cnn(C)c3)c3oc4ccc(-c5cncn5C)cc4c32)CCO1` (relative stereo): the solubility at 24 h in data set [4] is above 920 µg/mL; in data set [5], 106 µg/mL (≈ 231 µM). For the same molecule, the logD in data set [3] amounted to 2.3.
In the case of `CC[C@H]1C[C@@H](n2c(=O)nc(-c3cnn(C)c3)c3oc4ccc(-c5cn(C)cn5)cc4c32)CCO1` (relative stereo), the bioavailability in data set [1] amounted to 51%. The molecule further displayed a Cmax in data set [2] of 1200 nM. In the data set on Rattus norvegicus, this molecule gave a CL of 13%. Further, the solubility at 24 h is above 1000 µg/mL in data set [4] and 5 µg/mL (≈ 10.9 µM) in data set [5]. In data set [3], this molecule had a logD of 2.6.
